In assay [1] the target is 5-hydroxytryptamine receptor 4 (Cavia porcellus) (UniProt O70528). Description: Displacement of [3H]GR113808 from 5HT4 receptor in guinea pig striatal membranes at 1 uM. The assay is classed as cell membranes. The conditions noted are these: Striatum, Membrane.
Assay [2] concerns the target 5-hydroxytryptamine receptor 4 (Cavia porcellus, UniProt O70528). Put plainly: Displacement of [3H]GR113808 from 5HT4 receptor in guinea pig striatal membranes. The assay is classed as cell membranes, Striatum, Membrane. (In a radioligand displacement assay an active substance lowers the binding of a labelled ligand.)

The values that follow come from ChEMBL document CHEMBL1287647, “Synthesis and characterization of a iodine-125-labeled pyrrolo[1,2-a]thieno[3,2-e]pyrazine and evaluation as a potential 5-HT4R SPECT tracer” (Eur J Med Chem, 2010).

5-hydroxytryptamine receptor 4 (Cavia porcellus), sequence (O70528 whole entry): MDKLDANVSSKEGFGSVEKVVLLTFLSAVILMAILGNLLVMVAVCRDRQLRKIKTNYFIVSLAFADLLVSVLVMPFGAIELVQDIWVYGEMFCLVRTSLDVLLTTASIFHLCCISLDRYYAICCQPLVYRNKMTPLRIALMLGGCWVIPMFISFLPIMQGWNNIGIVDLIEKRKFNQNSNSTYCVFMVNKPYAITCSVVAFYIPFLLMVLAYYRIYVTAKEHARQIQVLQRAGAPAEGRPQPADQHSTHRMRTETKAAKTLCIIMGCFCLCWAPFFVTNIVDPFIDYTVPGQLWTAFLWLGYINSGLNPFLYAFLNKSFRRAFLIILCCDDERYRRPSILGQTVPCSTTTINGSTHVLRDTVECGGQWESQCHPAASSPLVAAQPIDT
5-hydroxytryptamine receptor 4, sequence (O70528 whole entry): as above

For the molecule `Cc1csc2nc(OCC3CCN(C/C=C/I)CC3)c3cccn3c12`, the inhibition (usually how much of the control response was suppressed) in assay [1] amounted to 87%. The inhibitory constant (Ki) (in general, the equilibrium dissociation constant of an inhibitor or competing ligand from its target) in assay [2] is 129 nM.
Molecule `C#CCN1CCC(COc2nc3scc(C)c3n3cccc23)CC1` came in with an inhibition in assay [1] of 85%. This molecule also had a Ki in assay [2] of 891 nM.
